Assay results reported in patent US20080269241A1, “BICYCLIC AMINOPROPYL TETRAHYDRO-PYRAZOLO-PYRIDINE MODULATORS OF CATHEPSIN S” (priority 2007, published 2008).
Like-named read-outs stand apart in the source and are kept apart here.

Target: T1, human cathepsin S (CatS) (Homo sapiens, UniProt P25774)
T1 construct: made in house; host or cells: baculovirus system (insect cells)
Assay: Recombinant human cathepsin S (CatS) fluorogenic substrate inhibition assay
Assay type: biochemical
Procedure: Recombinant human cathepsin S (CatS) was expressed in the baculovirus system and purified in one step with a thiopropyl-sepharose column. […] The assay is run in 150 mM sodium acetate pH 5.0 containing 1.5 mM DTT and 150 mM NaCl. […] Measurements are taken every min for 20 min. The rate is calculated from the slope of the increase in fluorescence and the percent inhibition is calculated from this.

[1] = recombinant human CatS, 10 μM Z-Valine-Valine-Arginine-AMC, pH 5.0, average of results obtained, read-out: CatS IC50

T1 sequence (P25774 115-331): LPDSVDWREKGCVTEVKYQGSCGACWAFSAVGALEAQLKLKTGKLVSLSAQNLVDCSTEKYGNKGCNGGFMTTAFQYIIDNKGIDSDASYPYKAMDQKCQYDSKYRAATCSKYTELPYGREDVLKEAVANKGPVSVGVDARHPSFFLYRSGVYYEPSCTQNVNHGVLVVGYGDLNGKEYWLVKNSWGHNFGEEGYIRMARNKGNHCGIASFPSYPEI

Structure (SMILES) | IC50 [1] [nM] | IC50 [nM]
CCc1ccc(C(=O)Nc2cc(-c3nn(CCCN4CCN(c5cccc(Cl)c5)CC4)c4c3CN(S(C)(=O)=O)CC4)ccc2Cl)cc1 [Example 230, N-[2-Chloro-5-(1-{3-[4-(3-chloro-phenyl)-piperazin-1-yl]-propyl}-5-methanesulfonyl-4,5,6,7-tetrahydro-1H-pyrazolo[4,3-c]pyridin-3-yl)-phenyl]-4-ethyl-benzamide] | 780 | 
CC(C)CC(=O)NCc1cc(-c2nn(CC(O)CN3CCC(N4CCCC4)CC3)c3c2CN(S(C)(=O)=O)CC3)ccc1C(F)(F)F (stereo not drawn) [Example 248, N-(5-{1-[2-Hydroxy-3-(4-pyrrolidin-1-yl-piperidin-1-yl)-propyl]-5-methanesulfonyl-4,5,6,7-tetrahydro-1H-pyrazolo[4,3-c]pyridin-3-yl}-2-trifluoromethyl-benzyl)-3-methyl-butyramide] | 120 | 
CC(C)CC(=O)NCc1cc(-c2nn(CC(O)CN3CCC(N4CCOCC4)CC3)c3c2CN(S(C)(=O)=O)CC3)ccc1C(F)(F)F (stereo not drawn) [Example 254, N-(5-{1-[2-Hydroxy-3-(4-morpholin-4-yl-piperidin-1-yl)-propyl]-5-methanesulfonyl-4,5,6,7-tetrahydro-1H-pyrazolo[4,3-c]pyridin-3-yl}-2-trifluoromethyl-benzyl)-3-methyl-butyramide] | 120 | 
CC(C)CC(=O)NCc1cc(-c2nn(CC(O)CN3CCC(c4ccccn4)CC3)c3c2CN(S(C)(=O)=O)CC3)ccc1C(F)(F)F (stereo not drawn) [Example 257, N-(5-{1-[2-Hydroxy-3-(3′,4′,5′,6′-tetrahydro-2′H-[2,4′]bipyridinyl-1′-yl)-propyl]-5-methanesulfonyl-4,5,6,7-tetrahydro-1H-pyrazolo[4,3-c]pyridin-3-yl}-2-trifluoromethyl-benzyl)-3-methyl-butyramide] | 10 | 
CC(C)CC(=O)NCc1cc(-c2nn(CC(O)CN3CCC(O)(c4ccccn4)CC3)c3c2CN(S(C)(=O)=O)CC3)ccc1C(F)(F)F (stereo not drawn) [Example 258, N-(5-{1-[2-Hydroxy-3-(4′-hydroxy-3′,4′,5′,6′-tetrahydro-2′H-[2,4′]bipyridinyl-1′-yl)-propyl]-5-methanesulfonyl-4,5,6,7-tetrahydro-1H-pyrazolo[4,3-c]pyridin-3-yl}-2-trifluoromethyl-benzyl)-3-methyl-butyramide] | 40 | 
CC(C)=CC(=O)NCc1cc(-c2nn(CC(O)CN3CCN(c4ncccc4Cl)CC3)c3c2CN(S(C)(=O)=O)CC3)ccc1C(F)(F)F (stereo not drawn) [Example 262, 3-Methyl-but-2-enoic acid 5-(1-{3-[4-(3-chloro-pyridin-2-yl)-piperazin-1-yl]-2-hydroxy-propyl}-5-methanesulfonyl-4,5,6,7-tetrahydro-1H-pyrazolo[4,3-c]pyridin-3-yl)-2-trifluoromethyl-benzylamide] | 10 | 
CC(C)=CC(=O)NCc1cc(-c2nn(CC(O)CN3CCN(c4c(Cl)cncc4Cl)CC3)c3c2CN(S(C)(=O)=O)CC3)ccc1C(F)(F)F (stereo not drawn) [Example 265, 3-Methyl-but-2-enoic acid 5-(1-{3-[4-(3,5-dichloro-pyridin-4-yl)-piperazin-1-yl]-2-hydroxy-propyl}-5-methanesulfonyl-4,5,6,7-tetrahydro-1H-pyrazolo[4,3-c]pyridin-3-yl)-2-trifluoromethyl-benzylamide] | 10 | 
CC(C)=CC(=O)NCc1cc(-c2nn(CC(O)CN3CCC(O)(c4ccccn4)CC3)c3c2CN(S(C)(=O)=O)CC3)ccc1C(F)(F)F (stereo not drawn) [Example 266, 3-Methyl-but-2-enoic acid 5-{1-[2-hydroxy-3-(4′-hydroxy-3′,4′,5′,6′-tetrahydro-2′H-[2,4′]bipyridinyl-1′-yl)-propyl]-5-methanesulfonyl-4,5,6,7-tetrahydro-1H-pyrazolo[4,3-c]pyridin-3-yl}-2-trifluoromethyl-benzylamide] | 10 | 
CC(C)=CC(=O)NCc1cc(-c2nn(CC(O)CN3CCC(c4nc(=O)[nH][nH]4)CC3)c3c2CN(S(C)(=O)=O)CC3)ccc1C(F)(F)F (stereo not drawn) [Example 270, 3-Methyl-but-2-enoic acid 5-(1-{2-hydroxy-3-[4-(5-oxo-2,5-dihydro-1H-[1,2,4]triazol-3-yl)-piperidin-1-yl]-propyl}-5-methanesulfonyl-4,5,6,7-tetrahydro-1H-pyrazolo[4,3-c]pyridin-3-yl)-2-trifluoromethyl-benzylamide] | 10 | 

Continued, values first:

IC50 [1] [nM] | IC50 [nM] | Structure (SMILES)
830 |  | CS(=O)(=O)N1CCc2c(c(-c3ccc(Cl)c(NC(=O)c4ccc(C(F)(F)F)cc4)c3)nn2CCCN2CCN(c3cccc(Cl)c3)CC2)C1 [Example 233, N-[2-Chloro-5-(1-{3-[4-(3-chloro-phenyl)-piperazin-1-yl]-propyl}-5-methanesulfonyl-4,5,6,7-tetrahydro-1H-pyrazolo[4,3-c]pyridin-3-yl)-phenyl]-4-trifluoromethyl-benzamide]
840 |  | CS(=O)(=O)N1CCc2c(c(-c3ccc(Cl)c(NC(=O)c4ccc(F)cc4)c3)nn2CCCN2CCN(c3cccc(Cl)c3)CC2)C1 [Example 234, N-[2-Chloro-5-(1-{3-[4-(3-chloro-phenyl)-piperazin-1-yl]-propyl}-5-methanesulfonyl-4,5,6,7-tetrahydro-1H-pyrazolo[4,3-c]pyridin-3-yl)-phenyl]-4-fluoro-benzamide]
5300 |  | CN(C)CC(=O)NCc1cc(-c2nn(CC(O)CN3CCC(N4CCCC4)CC3)c3c2CN(S(C)(=O)=O)CC3)ccc1C(F)(F)F (stereo not drawn) [Example 243, 2-Dimethylamino-N-(5-{1-[2-hydroxy-3-(4-pyrrolidin-1-yl-piperidin-1-yl)-propyl]-5-methanesulfonyl-4,5,6,7-tetrahydro-1H-pyrazolo[4,3-c]pyridin-3-yl}-2-trifluoromethyl-benzyl)-acetamide]
140 |  | CC(C)CC(=O)NCc1cc(-c2nn(CC(O)CN3CCC(N4CCOC4=O)CC3)c3c2CN(S(C)(=O)=O)CC3)ccc1C(F)(F)F (stereo not drawn) [Example 252, N-[5-(1-{2-Hydroxy-3-[4-(2-oxo-oxazolidin-3-yl)-piperidin-1-yl]-propyl}-5-methanesulfonyl-4,5,6,7-tetrahydro-1H-pyrazolo[4,3-c]pyridin-3-yl)-2-trifluoromethyl-benzyl]-3-methyl-butyramide]
90 |  | CC(C)CC(=O)NCc1cc(-c2nn(CC(O)CN3CCC(N4CC(O)CC4=O)CC3)c3c2CN(S(C)(=O)=O)CC3)ccc1C(F)(F)F (stereo not drawn) [Example 253, N-[5-(1-{2-Hydroxy-3-[4-(4-hydroxy-2-oxo-pyrrolidin-1-yl)-piperidin-1-yl]-propyl}-5-methanesulfonyl-4,5,6,7-tetrahydro-1H-pyrazolo[4,3-c]pyridin-3-yl)-2-trifluoromethyl-benzyl]-3-methyl-butyramide]
70 |  | CC(C)CC(=O)NCc1cc(-c2nn(CC(O)CN3CCC(c4nnnn4Cc4ccccc4)CC3)c3c2CN(S(C)(=O)=O)CC3)ccc1C(F)(F)F (stereo not drawn) [Example 256, N-[5-(1-{3-[4-(1-Benzyl-1H-tetrazol-5-yl)-piperidin-1-yl]-2-hydroxy-propyl}-5-methanesulfonyl-4,5,6,7-tetrahydro-1H-pyrazolo[4,3-c]pyridin-3-yl)-2-trifluoromethyl-benzyl]-3-methyl-butyramide]
 | 20 | COc1ccccc1C1CCN(CC(O)Cn2nc(-c3ccc(C(F)(F)F)c(CNC(=O)CC(C)C)c3)c3c2CCN(S(C)(=O)=O)C3)CC1 (stereo not drawn) [Example 259, N-[5-(1-{2-Hydroxy-3-[4-(2-methoxy-phenyl)-piperidin-1-yl]-propyl}-5-methanesulfonyl-4,5,6,7-tetrahydro-1H-pyrazolo[4,3-c]pyridin-3-yl)-2-trifluoromethyl-benzyl]-3-methyl-butyramide]
120 |  | CC(C)CC(=O)NCc1cc(-c2nn(CC(O)CN3CCC(C(=O)N4CCOCC4)CC3)c3c2CN(S(C)(=O)=O)CC3)ccc1C(F)(F)F (stereo not drawn) [Example 260, N-[5-(1-{2-Hydroxy-3-[4-(morpholine-4-carbonyl)-piperidin-1-yl]-propyl}-5-methanesulfonyl-4,5,6,7-tetrahydro-1H-pyrazolo[4,3-c]pyridin-3-yl)-2-trifluoromethyl-benzyl]-3-methyl-butyramide]
10 |  | CC(C)=CC(=O)NCc1cc(-c2nn(CC(O)CN3CCC(c4ccccn4)CC3)c3c2CN(S(C)(=O)=O)CC3)ccc1C(F)(F)F (stereo not drawn) [Example 263, 3-Methyl-but-2-enoic acid 5-{1-[2-hydroxy-3-(3′,4′,5′,6′-tetrahydro-2′H-[2,4′]bipyridinyl-1′-yl)-propyl]-5-methanesulfonyl-4,5,6,7-tetrahydro-1H-pyrazolo[4,3-c]pyridin-3-yl}-2-trifluoromethyl-benzylamide]
10 |  | COc1ccccc1C1CCN(CC(O)Cn2nc(-c3ccc(C(F)(F)F)c(CNC(=O)C=C(C)C)c3)c3c2CCN(S(C)(=O)=O)C3)CC1 (stereo not drawn) [Example 264, 3-Methyl-but-2-enoic acid 5-(1-{2-hydroxy-3-[4-(2-methoxy-phenyl)-piperidin-1-yl]-propyl}-5-methanesulfonyl-4,5,6,7-tetrahydro-1H-pyrazolo[4,3-c]pyridin-3-yl)-2-trifluoromethyl-benzylamide]
10 |  | CC(C)=CC(=O)NCc1cc(-c2nn(CC(O)CN3CCC(n4cn[nH]c4=O)CC3)c3c2CN(S(C)(=O)=O)CC3)ccc1C(F)(F)F (stereo not drawn) [Example 268, 3-Methyl-but-2-enoic acid 5-(1-{2-hydroxy-3-[4-(5-oxo-1,5-dihydro-[1,2,4]triazol-4-yl)-piperidin-1-yl]-propyl}-5-methanesulfonyl-4,5,6,7-tetrahydro-1H-pyrazolo[4,3-c]pyridin-3-yl)-2-trifluoromethyl-benzylamide]
20 |  | CC(C)=CC(=O)NCc1cc(-c2nn(CC(O)CN3CCC(c4c[nH]c5ncccc45)CC3)c3c2CN(S(C)(=O)=O)CC3)ccc1C(F)(F)F (stereo not drawn) [Example 272, 3-Methyl-but-2-enoic acid 5-(1-{2-hydroxy-3-[4-(1H-pyrrolo[2,3-b]pyridin-3-yl)-piperidin-1-yl]-propyl}-5-methanesulfonyl-4,5,6,7-tetrahydro-1H-pyrazolo[4,3-c]pyridin-3-yl)-2-trifluoromethyl-benzylamide]
